Measured values taken from PMC4912218, “Targeted metabolomics of Gammarus pulex following controlled exposures to selected pharmaceuticals in water” (The Science of the Total Environment, 2016).
In brackets after ≈: the same amount, converted by molar mass. Structures can show the parent of a compound that is named as a salt. Where two headings read alike, the source gives them in different places.

Legend:
[1] = design: method as in Drugbank; details: ref Drugbank, cited from earlier work
Gammarus pulex = assay: in vivo; details: 24 h, AFW, 15 °C; * = LC50 is above solubility
Experimental: (§1) From these toxicity profiles the NOAEL and the LOAEL were determined. Exposure experiments were performed in Pyrex® beakers, each containing 200 mL of AFW at 15 °C and ten adult animals (> 5 mg wet weight, ww). Live/dead animals were counted after 24 h by gently prodding and observing movement of appendages. The pharmaceutical concentrations tested were in the range of 0.01 to 250 mg L^− 1. […] Concentrations where 100, 50 and 0% of the animals died were repeated in duplicate or triplicate.

in vivo = details: in vivo
Experimental: as §1

| Compound | Water solubility [1] | 24 h- LC50 G. pulex (present study) (Gammarus pulex) [µg/mL] | LC50 at 24 h (in vivo) [µg/mL] | LC50 at 24 h (in vivo; Gammarus pulex) [µg/mL] | Water solubility ([1]; 26 °C) |
| --- | --- | --- | --- | --- | --- |
| COc1cc(Cc2cnc(N)nc2N)cc(OC)c1OC [Trimethoprin] | 400 mg/L | >200 |  |  |  |
| Cc1ccc(Cl)c(Nc2ccccc2C(=O)O)c1Cl [Meclofenamic acid] | 30 mg/L |  | 4.54 (≈ 15.3 µM) |  |  |
| CC(C)Cc1ccc(C(C)C(=O)O)cc1 (centres unmarked) [Ibuprofen] | 100000 mg/L |  | 44 (≈ 213 µM) |  |  |
| CN(C)CCCN1c2ccccc2CCc2ccccc21 [Imipramine] | 50000 mg/L |  | 3.85 (≈ 13.7 µM) |  |  |
| COCCc1ccc(OCC(O)CNC(C)C)cc1 (centres unmarked) [Metoprolol tartrate] |  |  |  | > 150 |  |
| CC(C)(Oc1ccc(CCNC(=O)c2ccc(Cl)cc2)cc1)C(=O)O [Bezafibrate] | Insoluble |  | > 1 |  |  |
| O=C(O)c1ccccc1O [Salicylic acid] | 1800 mg/L |  | 29.3 (≈ 212 µM) |  |  |
| O=C(Nc1ccc(Cl)cc1)Nc1ccc(Cl)c(Cl)c1 [Triclocarban] |  |  | > 10 |  | 10 (26 ºC) mg L^-1 |
| CNC(=C[N+](=O)[O-])NCCSCc1ccc(CN(C)C)o1 [Ranitidine] | 1800 mg/L |  |  | > 250 |  |
